According to paper PMC7496096, “Functional Characterisation of ClpP Mutations Conferring Resistance to Acyldepsipeptide Antibiotics in Firmicutes” (Chembiochem, 2020):
≈ marks a conversion by molar mass, not a printed value.

Assays:
[1] = tested on: S. aureus 133; test: microbe, parasite or virus in culture; type: cell-based, Staphylococcus aureus; settings: broth microdilution, Mueller-Hinton broth (without cation adjustment), CLSI, inoculum 5×10^4 CFU mL^−1; wild type
Description: (§1) Determination of antibacterial activity: ADEP1 was purified from the culture supernatant of S. hawaiiensis NRRL 15010 as described.4 ADEPs 2, 4, 7, 9 were custom synthesised by EMC Microcollections, Tübingen, or provided by AiCuris, Wuppertal, Germany. The minimal inhibitory concentration (MIC) was determined by broth microdilution in Mueller‐Hinton broth (without cation adjustment) according to the guidelines of the Clinical Laboratory Standards Institute (CLSI).69 The inoculum was set to 5×10^4 CFU mL^−1 to allow some distance to the determined spontaneous resistance frequencies. […] All other ADEPs were used from DMSO stock solutions kept at −20 °C.

[2] = tested on: S. aureus ATCC 29213; test: microbe, parasite or virus in culture; type: cell-based, Staphylococcus aureus; settings: broth microdilution, Mueller-Hinton broth (without cation adjustment), CLSI, inoculum 5×10^4 CFU mL^−1; wild type
Description: as §1

[3] = tested on: E. faecalis ATCC 29212; test: microbe, parasite or virus in culture; type: cell-based, Enterococcus faecalis; settings: broth microdilution, Mueller-Hinton broth (without cation adjustment), CLSI, inoculum 5×10^4 CFU mL^−1; wild type
Description: as §1

[4] = tested on: E. faecium L4001; type: cell-based, Enterococcus faecium; settings: broth microdilution, Mueller-Hinton broth; wildtype
Description: as §1

[5] = tested on: E. faecium RC1; type: cell-based, Enterococcus faecium; settings: resistant clone of E. faecium L4001; ClpP I29→T, ADEP binding site
Description: as §1
(§2) Screening for ADEP‐resistant mutants and determination of resistance rates: Single colonies of wild‐type strains grown on Mueller‐Hinton agar plates overnight were suspended in sterile saline and a final inoculum of 5×10^6 cells was spread on plates supplemented with different ADEP congeners at 4× and 10× the MIC. For B. subtilis strain 3xclpP, ADEP7‐containing Mueller‐Hinton agar plates were additionally supplemented with 1 mM IPTG. Resistant colonies were counted after 24 h at 37 °C and colonies were randomly chosen for MIC determinations and sequencing. Mutations in the clpP gene of the respective isolated mutants were analysed by amplifying the clpP gene (and upstream promoter region) by PCR and sequencing of the resulting PCR amplicons (LGC genomics). Sequencing data were analysed by using SnapGene software (GSL Biotech).

[6] = tested on: E. faecium RC2; type: cell-based, Enterococcus faecium; settings: resistant clone of E. faecium L4001; insertion of IS30 family transposase between promotor and start codon, no expression
Description: as §1, §2

[7] = tested on: E. faecium RC3; type: cell-based, Enterococcus faecium; settings: resistant clone of E. faecium L4001; ClpP G127→A (equatorial interface)
Description: as §1, §2

[8] = tested on: S. aureus RC11; type: cell-based, Staphylococcus aureus; settings: resistant clone of S. aureus ATCC 29213; ClpP Q82→P (ClpP core; α3)
Description: as §1, §2

[9] = tested on: S. aureus RC12; type: cell-based, Staphylococcus aureus; settings: resistant clone of S. aureus ATCC 29213; ClpP E9→V, N-terminal gate
Description: as §1, §2

[10] = tested on: S. aureus RC15; type: cell-based, Staphylococcus aureus; settings: resistant clone of S. aureus ATCC 29213; ClpP E52→STOP, premature stop
Description: as §1, §2

[11] = tested on: S. aureus RC2; type: cell-based, Staphylococcus aureus; settings: resistant clone of S. aureus 133; ClpP M190→T, ADEP binding site
Description: as §1, §2

[12] = tested on: S. aureus RC4; type: cell-based, Staphylococcus aureus; settings: resistant clone of S. aureus 133; ClpP N173→D, ring-ring interaction
Description: as §1, §2

[13] = tested on: S. aureus RC5; type: cell-based, Staphylococcus aureus; settings: resistant clone of S. aureus 133; ClpP A133→V, ring-ring interaction
Description: as §1, §2

[14] = tested on: S. aureus RC6; type: cell-based, Staphylococcus aureus; settings: resistant clone of S. aureus 133; ClpP Q35→STOP, premature stop
Description: as §1, §2

[15] = tested on: S. aureus RC9; type: cell-based, Staphylococcus aureus; settings: resistant clone of S. aureus ATCC 29213; ClpP H123→R, active site
Description: as §1, §2

[16] = tested on: S. aureus 133; test: Spontaneous resistance rate on ADEP-containing agar; type: cell-based, Staphylococcus aureus; settings: ADEP exposure 4× MIC in Mueller-Hinton agar; 5×10^6 cells plated, colonies counted after 24 h at 37 °C
Description: as §2

[17] = tested on: S. aureus ATCC 29213; test: as above; type: cell-based, Staphylococcus aureus; settings: 5×10^6 cells plated, colonies counted after 24 h at 37 °C
Description: as §2

[18] = tested on: B. subtilis 3xclpP clones; type: cell-based, Bacillus subtilis; settings: B. subtilis 3xclpP resistant clones
Description: as §1, §2

[19] = tested on: B. subtilis RC12; type: cell-based, Bacillus subtilis; settings: resistant clone of B. subtilis 168; ClpP A101→T (ClpP core; α4)
Description: as §1, §2

[20] = tested on: B. subtilis RC1; type: cell-based, Bacillus subtilis; settings: resistant clone of B. subtilis 168; ClpP E156→STOP, premature stop
Description: as §1, §2

[21] = tested on: B. subtilis RC2; type: cell-based, Bacillus subtilis; settings: resistant clone of B. subtilis 168; ClpP L3→STOP, premature stop
Description: as §1, §2

[22] = tested on: B. subtilis RC3; type: cell-based, Bacillus subtilis; settings: resistant clone of B. subtilis 168; ClpP A76→T (ClpP core; α3)
Description: as §1, §2

[23] = tested on: B. subtilis RC4; type: cell-based, Bacillus subtilis; settings: resistant clone of B. subtilis 168; G insertion, frame shift, premature stop (E163→STOP)
Description: as §1, §2

[24] = tested on: B. subtilis RC7; type: cell-based, Bacillus subtilis; settings: resistant clone of B. subtilis 168; ClpP Q132→STOP, premature stop
Description: as §1, §2

[25] = tested on: B. subtilis RC8; type: cell-based, Bacillus subtilis; settings: resistant clone of B. subtilis 168; ClpP R142→H, intra-ring interaction
Description: as §1, §2

[26] = tested on: B. subtilis RC9; type: cell-based, Bacillus subtilis; settings: resistant clone of B. subtilis 168; ClpP I165→N (equatorial interface; α6)
Description: as §1, §2

C[C@@H]1C[C@H]2C(=O)OC[C@H](NC(=O)[C@H](Cc3cc(F)cc(F)c3)NC(=O)CCC3CCCCC3)C(=O)N3CCC[C@H]3C(=O)N3CCCC[C@H]3C(=O)N[C@@H](C)C(=O)N2C1 [ADEP2]
MIC [1]: 0.031 µg/mL (≈ 0.0388 µM) | MIC [2]: 0.125 µg/mL (≈ 0.156 µM) | MIC [3]: ≤0.031 µg/mL | MIC [4]: ≤0.063 µg/mL | MIC [5]: 0.125 µg/mL (≈ 0.156 µM) | MIC [6]: >16 µg/mL | MIC [7]: 4 µg/mL (≈ 5.01 µM) | MIC [8]: >64 µg/mL | MIC [9]: >64 µg/mL | MIC [10]: >64 µg/mL | MIC [11]: 2 µg/mL (≈ 2.5 µM) | MIC [12]: >64 µg/mL | MIC [13]: >64 µg/mL | MIC [14]: >64 µg/mL | MIC [15]: >64 µg/mL | Resistance rate [16]: 3×10^−6 | Resistance rate ([17]; ADEP exposure 4× MIC in Mueller-Hinton agar): 7×10^−7 | Resistance rate ([17]; ADEP exposure 10× MIC in Mueller-Hinton agar): 7×10^−7 | MIC, clpP mutations in the ectopic loci ([18]; mutation in lacA or aprE ectopic copy): ~1 µg/mL (≈ 1.25 µM) | MIC, clpP mutation in the original locus ([18]; mutation in native clpP locus): > 64 µg/mL | MIC [19]: >64 µg/mL | MIC [20]: >64 µg/mL | MIC [21]: >64 µg/mL | MIC [22]: 16 to 32 µg/mL | MIC [23]: >64 µg/mL | MIC [24]: >64 µg/mL | MIC [25]: >64 µg/mL | MIC [26]: >64 µg/mL
